# “And” between values parts separate entries of the source, which are not always exact repeats. Equal values may be shown once.
# How the values were obtained:
# [1] = biological target: PKCnu/PRKD3 (Homo sapiens, UniProt O94806); assay: HotSpot kinase assay; settings: read-out: % Enzyme Activity (relative to DMSO control), 10 uM
# Source text: (§1) Additionally, a 10-dose dilution series of staurosporine and other enzyme-appropriate compounds were included as positive control inhibitors.
# [2] = biological target: p70S6Kb/RPS6KB2 (Homo sapiens, UniProt Q9UBS0); assay: HotSpot kinase assay; settings: read-out: % Enzyme Activity (relative to DMSO control), 10 uM
# [3] = biological target: PKN2/PRK2 (Homo sapiens, UniProt Q16513); assay: HotSpot kinase assay; settings: read-out: % Enzyme Activity (relative to DMSO control), 10 uM
# Source text: as §1
# [4] = biological target: RON/MST1R (Homo sapiens, UniProt Q04912); assay: HotSpot kinase assay; settings: read-out: % Enzyme Activity (relative to DMSO control), 10 uM
# Source text: as §1
# [5] = biological target: IRR/INSRR (Homo sapiens, UniProt P14616); assay: HotSpot kinase assay; settings: read-out: % Enzyme Activity (relative to DMSO control), 10 uM
# Source text: as §1
# [6] = biological target: ZIPK/DAPK3 (Homo sapiens, UniProt O43293); assay: HotSpot kinase assay; settings: read-out: % Enzyme Activity (relative to DMSO control), 10 uM
# Source text: as §1
# [7] = biological target: p70S6K/RPS6KB1 (Homo sapiens, UniProt P23443); assay: HotSpot kinase assay; settings: read-out: % Enzyme Activity (relative to DMSO control), 10 uM
# [8] = biological target: KHS/MAP4K5 (Homo sapiens, UniProt Q9Y4K4); assay: HotSpot kinase assay; settings: read-out: % Enzyme Activity (relative to DMSO control), 10 uM
# [9] = biological target: PDGFRb (Homo sapiens, UniProt P09619); assay: HotSpot kinase assay; settings: read-out: % Enzyme Activity (relative to DMSO control), 10 uM
# [10] = biological target: SNRK (Homo sapiens, UniProt Q9NRH2); assay: HotSpot kinase assay; settings: read-out: % Enzyme Activity (relative to DMSO control), 10 uM
# Source text: as §1
# [11] = biological target: TYK2 (Homo sapiens, UniProt P29597); assay: HotSpot kinase assay; settings: read-out: % Enzyme Activity (relative to DMSO control), 10 uM
# Source text: as §1
# [12] = biological target: PKD2/PRKD2 (Homo sapiens, UniProt Q9BZL6); assay: HotSpot kinase assay; settings: read-out: % Enzyme Activity (relative to DMSO control), 10 uM
# Source text: as §1
# [13] = biological target: LKB1 (Homo sapiens, UniProt Q15831); assay: HotSpot kinase assay; settings: read-out: % Enzyme Activity (relative to DMSO control), 10 uM
# Source text: as §1
# [14] = biological target: PRKX (Homo sapiens, UniProt P51817); assay: HotSpot kinase assay; settings: read-out: % Enzyme Activity (relative to DMSO control), 10 uM
# Source text: as §1
# [15] = biological target: PDK3/PDHK3 (Homo sapiens, UniProt Q15120); assay: HotSpot kinase assay; settings: read-out: % Enzyme Activity (relative to DMSO control), 10 uM
# Source text: as §1
# [16] = biological target: c-MET (Homo sapiens, UniProt P08581); assay: HotSpot kinase assay; settings: read-out: % Enzyme Activity (relative to DMSO control), 10 uM
# Source text: as §1
# [17] = biological target: CLK1 (Homo sapiens, UniProt P49759); assay: HotSpot kinase assay; settings: read-out: % Enzyme Activity (relative to DMSO control), 10 uM
# Source text: as §1
# [18] = biological target: CK1G3 (Homo sapiens, UniProt Q9Y6M4); assay: HotSpot kinase assay; settings: read-out: % Enzyme Activity (relative to DMSO control), 10 uM
# Source text: as §1
# [19] = biological target: AMPK(A1/B1/G3) (Homo sapiens, UniProt Q13131); assay: HotSpot kinase assay; settings: read-out: % Enzyme Activity (relative to DMSO control), 10 uM
# Source text: as §1
# [20] = biological target: MYO3b (Homo sapiens, UniProt Q8WXR4); assay: HotSpot kinase assay; settings: read-out: % Enzyme Activity (relative to DMSO control), 10 uM
# [21] = biological target: WNK3 (Homo sapiens, UniProt Q9BYP7); assay: HotSpot kinase assay; settings: read-out: % Enzyme Activity (relative to DMSO control), 10 uM
# [22] = biological target: P38b/MAPK11 (Homo sapiens, UniProt Q15759); assay: HotSpot kinase assay; settings: read-out: % Enzyme Activity (relative to DMSO control), 10 uM
# [23] = biological target: JNK1 (Homo sapiens, UniProt P45983); assay: HotSpot kinase assay; settings: read-out: % Enzyme Activity (relative to DMSO control), 10 uM
# Source text: as §1
# [24] = biological target: JAK3 (Homo sapiens, UniProt P52333); assay: HotSpot kinase assay; settings: read-out: % Enzyme Activity (relative to DMSO control), 10 uM
# [25] = biological target: GRK1 (Homo sapiens, UniProt Q15835); assay: HotSpot kinase assay; settings: read-out: % Enzyme Activity (relative to DMSO control), 10 uM
# Source text: as §1
# [26] = biological target: STK32B/YANK2 (Homo sapiens, UniProt Q9NY57); assay: HotSpot kinase assay; settings: read-out: % Enzyme Activity (relative to DMSO control), 10 uM
# Source text: as §1
# [27] = biological target: CDK2/cyclin O (Homo sapiens, UniProt P24941); assay: HotSpot kinase assay; settings: read-out: % Enzyme Activity (relative to DMSO control), 10 uM
# [28] = biological target: CDK3/cyclin E2 (Homo sapiens, UniProt Q00526); assay: HotSpot kinase assay; settings: read-out: % Enzyme Activity (relative to DMSO control), 10 uM
# [29] = biological target: TRPM7/CHAK1 (Homo sapiens, UniProt Q96QT4); assay: HotSpot kinase assay; settings: read-out: % Enzyme Activity (relative to DMSO control), 10 uM
# [30] = biological target: PKG2/PRKG2 (Homo sapiens, UniProt Q13237); assay: HotSpot kinase assay; settings: read-out: % Enzyme Activity (relative to DMSO control), 10 uM
# Source text: as §1
# [31] = biological target: FER (Homo sapiens, UniProt P16591); assay: HotSpot kinase assay; settings: read-out: % Enzyme Activity (relative to DMSO control), 10 uM
# [32] = biological target: GRK7 (Homo sapiens, UniProt Q8WTQ7); assay: HotSpot kinase assay; settings: read-out: % Enzyme Activity (relative to DMSO control), 10 uM
# Source text: as §1
# [33] = biological target: ERK1 (Homo sapiens, UniProt P27361); assay: HotSpot kinase assay; settings: read-out: % Enzyme Activity (relative to DMSO control), 10 uM
# Source text: as §1
# [34] = biological target: ALK (Homo sapiens, UniProt Q9UM73); assay: HotSpot kinase assay; settings: read-out: % Enzyme Activity (relative to DMSO control), 10 uM
# Source text: as §1
# [35] = biological target: ERBB4/HER4 (Homo sapiens, UniProt Q15303); assay: HotSpot kinase assay; settings: read-out: % Enzyme Activity (relative to DMSO control), 10 uM
# Source text: as §1
# [36] = biological target: PKCa (Homo sapiens, UniProt P17252); assay: HotSpot kinase assay; settings: read-out: % Enzyme Activity (relative to DMSO control), 10 uM
# Source text: as §1
# [37] = biological target: GSK3a (Homo sapiens, UniProt P49840); assay: HotSpot kinase assay; settings: read-out: % Enzyme Activity (relative to DMSO control), 10 uM
# [38] = tested on: hALPK1-KI mice; assay: Retinal microglia (IBA1-positive cells); settings: individual animals
# Chain of IRR/INSRR (P14616 27-1297): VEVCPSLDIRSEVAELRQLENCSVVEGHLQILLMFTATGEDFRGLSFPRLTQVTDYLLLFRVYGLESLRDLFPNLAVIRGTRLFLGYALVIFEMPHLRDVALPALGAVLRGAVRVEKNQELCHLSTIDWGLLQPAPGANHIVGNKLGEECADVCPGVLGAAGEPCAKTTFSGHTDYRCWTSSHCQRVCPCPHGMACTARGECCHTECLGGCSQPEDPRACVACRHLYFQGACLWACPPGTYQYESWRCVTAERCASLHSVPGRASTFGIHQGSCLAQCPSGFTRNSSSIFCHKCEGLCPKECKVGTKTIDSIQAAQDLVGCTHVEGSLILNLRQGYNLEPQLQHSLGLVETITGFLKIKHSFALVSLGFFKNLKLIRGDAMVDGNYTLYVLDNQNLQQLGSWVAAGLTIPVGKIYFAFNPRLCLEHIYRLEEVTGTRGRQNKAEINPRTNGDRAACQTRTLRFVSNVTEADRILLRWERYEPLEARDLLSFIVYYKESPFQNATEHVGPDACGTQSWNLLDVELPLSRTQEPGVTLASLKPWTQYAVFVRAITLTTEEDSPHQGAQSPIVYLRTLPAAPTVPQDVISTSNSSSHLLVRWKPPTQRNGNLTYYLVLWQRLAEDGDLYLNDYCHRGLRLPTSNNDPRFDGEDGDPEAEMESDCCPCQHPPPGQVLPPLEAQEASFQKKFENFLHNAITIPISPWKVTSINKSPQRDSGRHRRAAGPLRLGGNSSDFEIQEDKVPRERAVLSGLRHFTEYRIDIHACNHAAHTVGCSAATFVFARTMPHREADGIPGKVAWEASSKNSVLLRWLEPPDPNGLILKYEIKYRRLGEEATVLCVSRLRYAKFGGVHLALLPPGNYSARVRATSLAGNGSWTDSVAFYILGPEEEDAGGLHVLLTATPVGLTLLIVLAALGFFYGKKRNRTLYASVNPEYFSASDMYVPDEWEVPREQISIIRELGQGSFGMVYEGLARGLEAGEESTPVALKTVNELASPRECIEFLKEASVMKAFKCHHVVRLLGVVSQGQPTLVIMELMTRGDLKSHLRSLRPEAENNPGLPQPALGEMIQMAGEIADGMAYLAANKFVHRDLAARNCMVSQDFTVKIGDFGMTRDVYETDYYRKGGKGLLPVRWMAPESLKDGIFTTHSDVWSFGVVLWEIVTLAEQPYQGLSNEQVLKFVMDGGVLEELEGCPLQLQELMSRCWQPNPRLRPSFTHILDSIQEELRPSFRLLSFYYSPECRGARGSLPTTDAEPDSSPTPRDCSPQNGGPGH
# Chain of SNRK (Q9NRH2 whole entry): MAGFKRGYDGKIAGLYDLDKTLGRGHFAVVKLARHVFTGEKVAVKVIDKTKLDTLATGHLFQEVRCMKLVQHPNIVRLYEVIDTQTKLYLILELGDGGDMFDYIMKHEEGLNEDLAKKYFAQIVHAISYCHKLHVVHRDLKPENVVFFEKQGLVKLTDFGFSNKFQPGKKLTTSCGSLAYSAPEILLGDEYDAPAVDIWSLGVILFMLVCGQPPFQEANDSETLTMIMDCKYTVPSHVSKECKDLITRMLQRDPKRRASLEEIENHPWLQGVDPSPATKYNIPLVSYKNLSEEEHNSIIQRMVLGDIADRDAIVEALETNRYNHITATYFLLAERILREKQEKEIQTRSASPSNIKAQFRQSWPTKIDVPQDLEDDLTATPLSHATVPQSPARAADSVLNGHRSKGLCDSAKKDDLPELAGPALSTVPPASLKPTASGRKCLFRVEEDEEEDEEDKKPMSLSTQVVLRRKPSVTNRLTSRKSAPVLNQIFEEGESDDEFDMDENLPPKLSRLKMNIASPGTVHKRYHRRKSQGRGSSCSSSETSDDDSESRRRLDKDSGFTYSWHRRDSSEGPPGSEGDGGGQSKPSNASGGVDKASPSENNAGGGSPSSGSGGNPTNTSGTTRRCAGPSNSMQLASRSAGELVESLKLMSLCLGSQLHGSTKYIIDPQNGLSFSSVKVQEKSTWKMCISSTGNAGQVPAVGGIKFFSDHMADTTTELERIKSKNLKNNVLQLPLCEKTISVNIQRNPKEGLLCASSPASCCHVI
# Chain of FER (P16591 whole entry): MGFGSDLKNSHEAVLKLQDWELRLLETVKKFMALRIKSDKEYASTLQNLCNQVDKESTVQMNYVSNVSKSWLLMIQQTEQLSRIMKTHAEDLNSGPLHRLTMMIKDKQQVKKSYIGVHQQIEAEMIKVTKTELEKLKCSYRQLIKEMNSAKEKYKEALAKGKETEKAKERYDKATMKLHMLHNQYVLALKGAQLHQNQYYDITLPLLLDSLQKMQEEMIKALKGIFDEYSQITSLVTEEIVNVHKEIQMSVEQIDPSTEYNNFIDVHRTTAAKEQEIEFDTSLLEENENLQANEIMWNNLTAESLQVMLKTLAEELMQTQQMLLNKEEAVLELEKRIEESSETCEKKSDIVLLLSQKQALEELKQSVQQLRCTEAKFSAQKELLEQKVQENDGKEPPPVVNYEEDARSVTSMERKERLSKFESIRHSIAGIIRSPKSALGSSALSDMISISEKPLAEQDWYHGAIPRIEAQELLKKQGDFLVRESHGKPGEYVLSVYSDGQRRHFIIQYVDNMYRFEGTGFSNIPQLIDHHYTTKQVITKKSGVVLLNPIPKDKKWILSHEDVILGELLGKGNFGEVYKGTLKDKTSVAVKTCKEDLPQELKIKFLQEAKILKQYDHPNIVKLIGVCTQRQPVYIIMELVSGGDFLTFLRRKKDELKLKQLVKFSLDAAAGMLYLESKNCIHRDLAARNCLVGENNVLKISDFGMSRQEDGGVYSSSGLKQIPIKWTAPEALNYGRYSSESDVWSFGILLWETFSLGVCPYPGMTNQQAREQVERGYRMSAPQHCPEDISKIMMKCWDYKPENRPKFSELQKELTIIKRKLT
# Chain of PDGFRb (P09619 33-1106): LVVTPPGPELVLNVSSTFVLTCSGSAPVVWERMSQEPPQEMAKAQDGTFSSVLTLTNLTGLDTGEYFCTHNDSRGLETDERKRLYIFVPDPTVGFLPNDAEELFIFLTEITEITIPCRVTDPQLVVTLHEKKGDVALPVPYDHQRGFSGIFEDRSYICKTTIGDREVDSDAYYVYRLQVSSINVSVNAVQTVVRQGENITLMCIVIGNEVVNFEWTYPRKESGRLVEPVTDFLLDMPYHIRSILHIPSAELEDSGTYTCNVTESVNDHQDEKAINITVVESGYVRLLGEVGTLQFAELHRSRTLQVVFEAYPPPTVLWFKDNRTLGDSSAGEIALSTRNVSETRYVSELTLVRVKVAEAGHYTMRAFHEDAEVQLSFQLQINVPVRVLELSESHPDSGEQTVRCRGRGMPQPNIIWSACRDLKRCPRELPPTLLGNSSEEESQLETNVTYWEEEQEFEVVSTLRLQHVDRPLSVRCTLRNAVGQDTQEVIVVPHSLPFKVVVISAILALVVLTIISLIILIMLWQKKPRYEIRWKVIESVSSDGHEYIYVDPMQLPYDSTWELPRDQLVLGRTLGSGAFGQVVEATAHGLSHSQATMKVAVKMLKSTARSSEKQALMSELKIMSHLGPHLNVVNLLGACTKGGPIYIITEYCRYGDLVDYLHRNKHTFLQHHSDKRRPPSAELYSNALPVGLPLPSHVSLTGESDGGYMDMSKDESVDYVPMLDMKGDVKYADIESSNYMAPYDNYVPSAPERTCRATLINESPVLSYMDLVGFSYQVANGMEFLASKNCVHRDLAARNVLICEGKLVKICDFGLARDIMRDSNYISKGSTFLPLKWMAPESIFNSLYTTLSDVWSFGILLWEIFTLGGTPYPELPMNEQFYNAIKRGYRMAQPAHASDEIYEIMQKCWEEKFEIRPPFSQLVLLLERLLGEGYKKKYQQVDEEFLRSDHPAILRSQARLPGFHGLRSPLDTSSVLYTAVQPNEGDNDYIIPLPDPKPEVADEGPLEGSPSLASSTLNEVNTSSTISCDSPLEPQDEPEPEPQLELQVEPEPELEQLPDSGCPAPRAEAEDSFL
# Chain of JNK1 (P45983 whole entry): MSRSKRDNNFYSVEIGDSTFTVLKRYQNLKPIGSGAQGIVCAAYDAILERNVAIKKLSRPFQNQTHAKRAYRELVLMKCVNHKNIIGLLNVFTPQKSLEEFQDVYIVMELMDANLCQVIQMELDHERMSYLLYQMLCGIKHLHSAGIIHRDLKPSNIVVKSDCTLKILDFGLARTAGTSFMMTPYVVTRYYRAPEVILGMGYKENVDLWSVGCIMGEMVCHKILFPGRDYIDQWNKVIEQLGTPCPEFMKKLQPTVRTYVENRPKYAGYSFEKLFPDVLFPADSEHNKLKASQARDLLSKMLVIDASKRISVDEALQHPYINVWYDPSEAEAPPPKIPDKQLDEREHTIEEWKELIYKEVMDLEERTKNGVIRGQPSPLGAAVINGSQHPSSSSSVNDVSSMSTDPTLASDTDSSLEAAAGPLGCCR
# Chain of GRK1 (Q15835 whole entry): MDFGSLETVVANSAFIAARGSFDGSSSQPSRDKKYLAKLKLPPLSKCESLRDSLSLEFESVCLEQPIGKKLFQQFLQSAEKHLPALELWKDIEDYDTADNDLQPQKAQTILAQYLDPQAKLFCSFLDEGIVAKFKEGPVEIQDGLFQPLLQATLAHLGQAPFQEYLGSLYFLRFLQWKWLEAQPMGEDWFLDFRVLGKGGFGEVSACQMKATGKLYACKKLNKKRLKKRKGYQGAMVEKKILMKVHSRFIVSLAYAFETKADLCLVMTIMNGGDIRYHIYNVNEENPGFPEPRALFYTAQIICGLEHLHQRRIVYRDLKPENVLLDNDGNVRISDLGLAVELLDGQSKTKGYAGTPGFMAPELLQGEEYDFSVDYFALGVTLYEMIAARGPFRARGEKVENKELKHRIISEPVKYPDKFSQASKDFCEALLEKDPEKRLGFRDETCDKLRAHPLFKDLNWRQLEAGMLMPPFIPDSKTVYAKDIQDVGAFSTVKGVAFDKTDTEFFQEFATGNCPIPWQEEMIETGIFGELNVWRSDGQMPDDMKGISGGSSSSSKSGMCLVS
smiles,measurement,setting,value
C#C[C@@](C)(c1ccc(Cl)cc1)c1csc(NC(=O)c2c(F)cc(N3CCNCC3)cc2F)n1 (stereo in doubt) [DF-003],remaining activity at 10 µM,[1],53.2%
same,remaining activity at 10 µM,[2],58.1%
same,remaining activity at 10 µM,[3],61.3%
same,remaining activity at 10 µM,[4],61.5%
same,remaining activity at 10 µM,[5],66.3%
same,remaining activity at 10 µM,[6],68.5%
same,remaining activity at 10 µM,[7],69.6%
same,remaining activity at 10 µM,[8],77.5%
same,remaining activity at 10 µM,[9],80.2%
same,remaining activity at 10 µM,[10],80.5%
same,remaining activity at 10 µM,[11],82.7%
same,remaining activity at 10 µM,[12],85.9%
same,remaining activity at 10 µM,[13],86.5%
same,remaining activity at 10 µM,[14],87.4%
same,remaining activity at 10 µM,[15],89.9%
same,remaining activity at 10 µM,[16],90.7%
same,remaining activity at 10 µM,[17],91.2%
same,remaining activity at 10 µM,[18],92.5%
same,remaining activity at 10 µM,[19],92.7%
same,remaining activity at 10 µM,[20],94.4%
same,remaining activity at 10 µM,[21],95.4%
same,remaining activity at 10 µM,[22],95.4%
same,remaining activity at 10 µM,[23],97.7%
same,remaining activity at 10 µM,[24],98.8%
same,remaining activity at 10 µM,[25],99.3%
same,remaining activity at 10 µM,[26],99.6%
same,remaining activity at 10 µM,[27],103%
same,remaining activity at 10 µM,[28],103%
same,remaining activity at 10 µM,[29],104%
same,remaining activity at 10 µM,[30],105%
same,remaining activity at 10 µM,[31],113%
same,remaining activity at 10 µM,[32],114%
same,remaining activity at 10 µM,[33],115%
same,remaining activity at 10 µM,[34],115%
same,remaining activity at 10 µM,[35],121%
same,remaining activity at 10 µM,[36],134%
same,remaining activity at 10 µM,[37],195%
same,Iba1 positive cells in 200 μm INL (Inner nuclear layer),"[38]; DF-003 3mpk, 3 mg/kg",0.00 and 0.04 and 0.08
same,Iba1 positive cells in 200 μm ONL (Outer nuclear layer),"[38]; DF-003 3mpk, 3 mg/kg",0.00 and 0.08 and 0.04
same,Iba1 positive cells in 200 μm INL (Inner nuclear layer),"[38]; DF-003 5mpk, 5 mg/kg",0.00 and 0.04 and 0.11
same,Iba1 positive cells in 200 μm ONL (Outer nuclear layer),"[38]; DF-003 5mpk, 5 mg/kg",0.08 and 0.06 and 0.00 and 0.04
